# Results: patent US8969388B1, “Substituted pyrazolone compounds and methods of use” (Calitor Sciences, LLC, priority 2012, dated 2015)
# Like-named read-outs stand apart in the source and are kept apart here.
# Columns and labels:
# [1] = Compound stability in human liver microsomes; type: in vitro ADME; details: pH 7.4; for half-life at 5 μM: human liver microsomes 0.5 mg protein/mL, compound 5 μM, NADPH, 37° C., read-out: Human T1/2; for CLint scaled at 5 μM: human liver microsomes, in vivo CLint extrapolated
# Experimental: (§1) Human or rat liver microsomes incubations were conducted in duplicate in polypropylene tubes. The typical incubation mixtures consisted of human liver microsomes (0.5 mg protein/mL), compounds of interest (5 μM) and NADPH (1.0 mM) in a total volume of 200 μL potassium phosphate buffer (PBS, 100 mM, pH 7.4). Compounds were dissolved in DMSO and diluted with PBS such that the final concentration of DMSO was 0.05%. The enzymatic reactions were commenced with the addition of protein after a 3-min preincubation and incubated in a water bath open to the air at 37° C. Reactions were terminated at various time points (0, 5, 10, 15, 30, 60 min) by adding equal volume of ice-cold acetonitrile. The samples were stored at −80° C. until LC/MS/MS assays.
# (§2) The concentrations of compounds in the incubation mixtures of human liver microsomes were determined by a LC/MS/MS method. The ranges of the linearity in the concentration range were determined for each tested compounds.
# (§3) A parallel incubation was performed using denatured microsomes as the negative control, and reactions were terminated at various time points (0, 15, 60 min) after incubation at 37° C.
# (§4) Dextromethorphan (70 μM) was selected as the positive control, and reactions were terminated at various time points (0, 5, 10, 15, 30, 60 min) after incubation at 37° C. Both positive and negative control samples were included in each assay to ensure the integrity of the microsomal incubation system.
# (§5) The concentrations of compounds in human liver microsome incubations were plotted as a percentage of the relevant zero time point control for each reaction. The in vivo CLint were extrapolated (ref: Naritomi Y, Terashita S, Kimura S, Suzuki A, Kagayama A, Sugiyama Y. Prediction of human hepatic clearance from in vivo animal experiments and in vitro metabolic studies with liver microsomes from animals and humans. Drug Metabolism and Disposition 2001, 29: 1316-1324.)
# [2] = Pharmacokinetics after intravenous and oral administration in rats; type: in vivo; details: for F: oral bioavailability, oral dose not given; for AUC(0-t) / half-life / Vd: rat, plasma; for clearance (CL) after iv dosing / AUC(0-t) / half-life / Vd: iv dosing; for Vd: read-out: Vss
# Experimental: The compounds disclosed herein are assessed in pharmacokinetic studies in mice, rats, dogs or monkeys. The compounds are administered as a water solution, 2% HPMC+1% TWEEN®80 in water solution, 5% DMSO+5% solutol in saline, 4% MC suspension or capsule. For the intravenous administration, the animals are generally given at 1 or 2 mg/kg dose. For the oral (p.o.) dosing, mice and rats are generally given 5 or 10 mg/kg dose, and dogs and monkeys are generally given 10 mg/kg dose. The blood samples (0.3 mL) are drawn at 0.25, 0.5, 1.0, 2.0, 3.0, 4.0, 6.0, 8.0, 12 and 24 h time points or 0.083, 0.25, 0.5, 1.0, 2.0, 4.0, 6.0, 8.0 and 24 h time points and centrifuged at 3,000 or 4000 rpm for 2 to 10 min. The plasma solutions are collected, stored at −20° C. or −70° C. until analyzed by LC/MS/MS as described above.
# [3] = Compound stability in rat liver microsomes; type: in vitro ADME; details: for half-life at 5 μM: pH 7.4, compound 5 μM, NADPH, 37° C., read-out: Rat T1/2; for CLint scaled at 5 μM: pH 7.4, in vivo CLint extrapolated
# Experimental: as §1, §2, §3, §4, §5
# KDR (h) [4] = biological target: T1, KDR (h) (Homo sapiens, UniProt P35968); assay: KDR (h) (VEGF-R2 (h)) kinase assay (IC50); type: biochemical; details: cells marked (IC50) in the Kd table
# T1 construct: host or cells: E. coli BL21-derived host (T7 phage) or HEK-293
# Experimental: (§6) The above assay procedure can be used to determine the IC50 for inhibition and/or the inhibition constant, Ki. The IC50 is defined as the concentration of compound required to reduce the enzyme activity by 50% under the condition of the assay. The IC50 value is estimated by preparing a 10 point curve using a ½ log dilution series (for example, a typical curve may be prepared using the following compound concentrations; 100 μM, 30 μM, 10 μM, 3 μM, 1 μM, 0.3 μM, 0.1 μM, 0.03 μM, 0.01 μM and 0 μM).
# KDR (h) (VEGF-R2 (h)) Assay
# (§7) (specific activity approx. 500 cpm/pmol, concentration as required).
# (§8) The kinase assays described herein can be performed at Millipore UK Ltd, Dundee Technology Park, Dundee DD2 1SW, UK c-Met (h) Assay.
# c-Met (h) [5] = biological target: T2, c-Met (h) (Homo sapiens, UniProt P08581); assay: c-Met (h) kinase assay (IC50); type: biochemical; details: cells marked (IC50) in the Kd table
# T2 construct: host or cells: E. coli BL21-derived host (T7 phage) or HEK-293
# Experimental: as §6, §7, §8
# KDR (h) [6] = biological target: T1, KDR (h); assay: KINOMEscan competition binding assay, KDR (h)
# Experimental: (§9) Alternatively, the kinase activities of the compounds can be measured using KINOMEscan™, which is based on a competition binding assay that quantitatively measures the ability of a compound to compete with an immobilized, active-site directed ligand. The assay was performed by combining three components: DNA-tagged kinase; immobilized ligand; and a test compound. The ability of the test compound to compete with the immobilized ligand was measured via quantitative PCR of the DNA tag.
# (§10) For most assays, kinase-tagged T7 phage strains were prepared in an E. coli host derived from the BL21 strain. E. coli were grown to log-phase and infected with T7 phage and incubated with shaking at 32° C. until lysis. The lysates were centrifuged and filtered to remove cell debris. The remaining kinases were produced in HEK-293 cells and subsequently tagged with DNA for qPCR detection. Streptavidin-coated magnetic beads were treated with biotinylated small molecule ligands for 30 minutes at room temperature to generate affinity resins for kinase assays. The liganded beads were blocked with excess biotin and washed with blocking buffer (SEABLOCK™ (Pierce), 1% BSA, 0.05% TWEEN®20, 1 mM DTT) to remove unbound ligand and to reduce nonspecific binding. Binding reactions were assembled by combining kinases, liganded affinity beads, and test compounds in 1× binding buffer (20% SEABLOCK™, 0.17×PBS, 0.05% TWEEN®20, 6 mM DTT). All reactions were performed in polystyrene 96-well plates in a final volume of 0.135 mL. The assay plates were incubated at room temperature with shaking for 1 hour and the affinity beads were washed with wash buffer (1×PBS, 0.05% TWEEN®20). The beads were then re-suspended in elution buffer (1×PBS, 0.05% TWEEN®20, 0.5 μM non-biotinylated affinity ligand) and incubated at room temperature with shaking for 30 minutes. The kinase concentration in the eluates was measured by qPCR.
# (§11) The kinase assays described herein were performed using KINOMEscan™ Profiling Service at DiscoveRx Corporation, 42501 Albrae St. Fremont, Calif.
# c-Met (h) [7] = biological target: T2, c-Met (h); assay: KINOMEscan competition binding assay, c-Met (h)
# Experimental: as §9, §10, §11
# U87MG glioblastoma cells = assay: U87MG tumor xenograft model, tumor growth inhibition; type: in vivo, athymic nude mice (BALB/cA nu/nu); details: mice, oral gavage
# Experimental: The efficacy of compounds disclosed herein was evaluated in a standard murine model of tumorigenesis. Human tumor cells (U87MG glioblastoma cells from ATCC) were expended in culture, harvested, and injected subcutaneously onto the rear flank of 6-7 week old female athymic nude mice (BALB/cA nu/nu, Hunan SLAC Laboratory Animal, Co.) (n=6-10 for vehicle group and for each dosing group). When tumors reached a volume of 100-250 mm^3, animals were randomly divided into vehicle control (for example, 5% DMSO+70% Captisol® (30%), 7% HCl (pH1), 18% Captisol® (30%); or 7% DMSO, 7% HCl (pH1), 70% Captisol® (30%), 16% Captisol® (30%), or the like) and compound groups. Subsequent administration of compound by oral gavage begins anywhere from day 0 to day 15 post tumor cell challenge and generally continues with once a day for the duration of the experiment.
# Progression of tumor growth is assessed by tumor volumes and recorded as a function of time. The long (L) and short (W) axes of the subcutaneous tumors were measured with calipers twice weekly, and the tumor volume (TV) calculated as (L×W^2)/2). TGI was calculated from the difference between the median tumor volumes of vehicle-treated and drug-treated mice, expressed as a percentage of the median tumor volume of the vehicle-treated control group, by the following relation:
# [formula] Initial statistical analysis is done by repeated measures analysis of variance (RMANOVA), followed by Scheffe psot hoc testing for multiple comparisons. Vehicle alone (5% DMSO+70% Captisol® (30%), 7% HCl (pH1), 18% Captisol® (30%); or 7% DMSO, 7% HCl (pH1), 70% Captisol® (30%), 16% Captisol® (30%), or the like) is the negative control.
# T1 sequence (P35968 20-1356): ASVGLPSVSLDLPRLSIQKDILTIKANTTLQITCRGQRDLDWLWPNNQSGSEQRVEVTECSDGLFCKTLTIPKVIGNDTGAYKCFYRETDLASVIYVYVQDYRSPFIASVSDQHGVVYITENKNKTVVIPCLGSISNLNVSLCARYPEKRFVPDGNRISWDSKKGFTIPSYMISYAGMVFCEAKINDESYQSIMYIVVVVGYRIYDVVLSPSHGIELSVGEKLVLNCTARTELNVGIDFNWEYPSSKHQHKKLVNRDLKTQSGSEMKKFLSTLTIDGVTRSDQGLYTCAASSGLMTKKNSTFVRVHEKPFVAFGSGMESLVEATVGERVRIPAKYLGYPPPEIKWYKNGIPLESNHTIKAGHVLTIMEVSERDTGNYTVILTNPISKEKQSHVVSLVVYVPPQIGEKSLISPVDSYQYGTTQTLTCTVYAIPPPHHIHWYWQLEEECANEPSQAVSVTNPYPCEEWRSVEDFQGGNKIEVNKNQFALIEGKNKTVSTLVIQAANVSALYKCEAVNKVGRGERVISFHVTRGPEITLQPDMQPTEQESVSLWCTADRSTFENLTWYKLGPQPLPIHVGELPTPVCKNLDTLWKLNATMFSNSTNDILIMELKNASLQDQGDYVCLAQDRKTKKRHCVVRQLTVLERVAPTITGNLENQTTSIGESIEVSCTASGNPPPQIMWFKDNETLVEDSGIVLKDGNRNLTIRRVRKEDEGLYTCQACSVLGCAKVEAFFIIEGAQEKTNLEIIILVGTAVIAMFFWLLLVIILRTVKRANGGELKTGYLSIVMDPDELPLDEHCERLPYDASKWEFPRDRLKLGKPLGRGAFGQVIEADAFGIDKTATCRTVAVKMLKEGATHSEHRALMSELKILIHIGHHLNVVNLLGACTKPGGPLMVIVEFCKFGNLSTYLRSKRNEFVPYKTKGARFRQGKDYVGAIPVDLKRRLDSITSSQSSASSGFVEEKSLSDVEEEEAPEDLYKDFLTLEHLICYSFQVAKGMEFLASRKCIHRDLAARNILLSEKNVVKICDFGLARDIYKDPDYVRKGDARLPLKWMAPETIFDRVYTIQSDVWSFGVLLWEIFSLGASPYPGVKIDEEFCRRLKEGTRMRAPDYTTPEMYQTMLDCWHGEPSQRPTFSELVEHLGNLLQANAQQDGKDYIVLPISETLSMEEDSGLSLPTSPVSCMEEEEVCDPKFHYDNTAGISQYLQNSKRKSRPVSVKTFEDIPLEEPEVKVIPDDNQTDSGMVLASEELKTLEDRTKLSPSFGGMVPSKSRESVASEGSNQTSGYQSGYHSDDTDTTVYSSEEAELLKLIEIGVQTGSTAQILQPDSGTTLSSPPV
# T2 sequence (P08581 25-1390): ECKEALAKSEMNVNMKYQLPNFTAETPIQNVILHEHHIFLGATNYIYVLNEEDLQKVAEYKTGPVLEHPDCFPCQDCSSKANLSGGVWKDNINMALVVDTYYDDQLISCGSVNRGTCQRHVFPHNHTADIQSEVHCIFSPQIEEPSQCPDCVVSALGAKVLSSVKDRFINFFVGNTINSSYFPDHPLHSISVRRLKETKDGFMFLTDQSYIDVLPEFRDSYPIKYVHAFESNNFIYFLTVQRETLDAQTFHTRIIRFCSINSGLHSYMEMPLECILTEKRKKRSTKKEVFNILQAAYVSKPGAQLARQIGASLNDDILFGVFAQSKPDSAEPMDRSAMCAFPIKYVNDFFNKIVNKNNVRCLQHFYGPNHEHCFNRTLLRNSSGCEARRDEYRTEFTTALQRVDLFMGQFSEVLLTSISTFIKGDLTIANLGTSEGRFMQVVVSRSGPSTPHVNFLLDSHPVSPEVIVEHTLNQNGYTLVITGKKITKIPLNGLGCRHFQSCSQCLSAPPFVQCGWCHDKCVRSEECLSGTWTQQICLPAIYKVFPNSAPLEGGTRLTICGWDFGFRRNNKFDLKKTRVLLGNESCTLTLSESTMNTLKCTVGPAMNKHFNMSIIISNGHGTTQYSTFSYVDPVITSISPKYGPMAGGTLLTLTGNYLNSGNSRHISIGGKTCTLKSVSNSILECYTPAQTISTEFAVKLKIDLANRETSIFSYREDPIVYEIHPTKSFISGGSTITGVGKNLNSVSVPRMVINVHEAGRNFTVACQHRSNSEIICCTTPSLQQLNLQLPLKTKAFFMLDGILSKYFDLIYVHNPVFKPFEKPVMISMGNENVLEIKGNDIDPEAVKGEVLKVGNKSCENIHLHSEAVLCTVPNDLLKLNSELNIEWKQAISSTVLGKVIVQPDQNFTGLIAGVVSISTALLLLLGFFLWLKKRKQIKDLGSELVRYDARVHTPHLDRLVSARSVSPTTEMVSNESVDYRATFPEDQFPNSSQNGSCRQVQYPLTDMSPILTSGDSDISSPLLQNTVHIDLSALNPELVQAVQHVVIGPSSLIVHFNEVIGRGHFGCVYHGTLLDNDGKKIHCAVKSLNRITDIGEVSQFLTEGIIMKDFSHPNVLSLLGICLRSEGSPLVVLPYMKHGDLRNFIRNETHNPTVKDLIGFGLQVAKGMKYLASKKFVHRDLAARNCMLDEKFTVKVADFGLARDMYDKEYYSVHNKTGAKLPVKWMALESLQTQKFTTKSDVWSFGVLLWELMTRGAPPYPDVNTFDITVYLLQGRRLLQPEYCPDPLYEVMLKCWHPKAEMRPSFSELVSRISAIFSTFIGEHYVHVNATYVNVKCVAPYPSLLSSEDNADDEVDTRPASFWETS
Compound,half-life at 5 μM [1] [h],CLint scaled at 5 μM [1] [mL/min/kg],clearance (CL) after iv dosing ([2]; 2 mg/kg) [mL/min/kg],F ([2]; iv dose 2 mg/kg) [%],AUC(0-t) ([2]; 2 mg/kg) [ng·h/mL],half-life ([2]; 2 mg/kg) [h],Vd ([2]; 2 mg/kg) [L/kg],half-life at 5 μM [3] [h],CLint scaled at 5 μM [3] [mL/min/kg],clearance (CL) after iv dosing ([2]; 1 mg/kg) [mL/min/kg],F ([2]; iv dose 1 mg/kg) [%],AUC(0-t) ([2]; 1 mg/kg) [ng·h/mL],half-life ([2]; 1 mg/kg) [h],Vd ([2]; 1 mg/kg) [L/kg],Kd (KDR (h) [6]) [nM],Kd (c-Met (h) [7]) [nM],further results
"Cc1c(C(=O)Nc2ccc(Oc3ccnc(N)c3)cc2F)c(=O)n(-c2ccccc2)n1C [Ex. 30, N-(4-((2-aminopyridin-4-yl)oxy)-2-fluorophenyl)-1,5-dimethyl-3-oxo-2-phenyl-2,3-dihydro-1H-pyrazole-4-carboxamide]",2.09,13.9,22,54.4,1490,11.8,2.64,1.61,25.8,–,–,–,–,–,–,–,–
"Cc1c(C(=O)Nc2ccc(Oc3ccnc(N)c3)cc2)c(=O)n(-c2ccccc2)n1C [Ex. 1, N-(4-((2-aminopyridin-4-yl)oxy)phenyl)-1,5-dimethyl-3-oxo-2-phenyl-2,3-dihydro-1H-pyrazole-4-carboxamide]",–,–,–,–,–,–,–,–,–,23.7,31.2,706,1.13,0.68,–,–,IC50 (KDR (h) [4]): > 3000 nM; IC50 (c-Met (h) [5]): 611 nM
"CC(=O)Nc1cc(Oc2ccc(NC(=O)c3c(C)n(C)n(-c4ccccc4)c3=O)nc2)ccn1 [Ex. 17, N-(5-((2-acetamidopyridin-4-yl)oxy)pyridin-2-yl)-1,5-dimethyl-3-oxo-2-phenyl-2,3-dihydro-1H-pyrazole-4-carboxamide]",–,–,0.5,59.7,69900,7.29,0.22,–,–,–,–,–,–,–,25,20,"TGI % (on last day of dosing) (U87MG glioblastoma cells; 6 mg/kg, 12 days): 26%; TGI % (on last day of dosing) (U87MG glioblastoma cells; 20 mg/kg, 12 days): 56%; TGI % (on last day of dosing) (U87MG glioblastoma cells; 60 mg/kg, 12 days): 85%"
"Cc1c(C(=O)Nc2cc(F)c(Oc3ccnc(N)c3)cc2F)c(=O)n(-c2ccccc2)n1C [Ex. 8, N-(4-((2-aminopyridin-4-yl)oxy)-2,5-difluorophenyl)-1,5-dimethyl-3-oxo-2-phenyl-2,3-dihydro-1H-pyrazole-4-carboxamide]",–,–,10.2,85.1,3350,0.82,0.51,–,–,–,–,–,–,–,1500,4.8,"TGI % (on last day of dosing) (U87MG glioblastoma cells; 6 mg/kg, 14 days): 13%; TGI % (on last day of dosing) (U87MG glioblastoma cells; 20 mg/kg, 14 days): 25%; TGI % (on last day of dosing) (U87MG glioblastoma cells; 60 mg/kg, 14 days): 43%"

# Now from value to compound, other results behind:
half-life at 5 μM [1] [h],CLint scaled at 5 μM [1] [mL/min/kg],clearance (CL) after iv dosing ([2]; 2 mg/kg) [mL/min/kg],F ([2]; iv dose 2 mg/kg) [%],AUC(0-t) ([2]; 2 mg/kg) [ng·h/mL],half-life ([2]; 2 mg/kg) [h],Vd ([2]; 2 mg/kg) [L/kg],half-life at 5 μM [3] [h],CLint scaled at 5 μM [3] [mL/min/kg],clearance (CL) after iv dosing ([2]; 1 mg/kg) [mL/min/kg],F ([2]; iv dose 1 mg/kg) [%],AUC(0-t) ([2]; 1 mg/kg) [ng·h/mL],half-life ([2]; 1 mg/kg) [h],Vd ([2]; 1 mg/kg) [L/kg],Kd (KDR (h) [6]) [nM],Kd (c-Met (h) [7]) [nM],Compound,further results
12.4,2.34,–,–,–,–,–,1.02,40.6,17,177.1,922,2.69,1.61,23,4.4,"Cc1c(C(=O)Nc2ccc(Oc3ccnc(N)c3Cl)c(F)c2)c(=O)n(-c2ccccc2)n1C [Ex. 3, N-(4-((2-amino-3-chloropyridin-4-yl)oxy)-3-fluorophenyl)-1,5-dimethyl-3-oxo-2-phenyl-2,3-dihydro-1H-pyrazole-4-carboxamide]","TGI % (on last day of dosing) (U87MG glioblastoma cells; 10 mg/kg, 16 days): 53%; TGI % (on last day of dosing) (U87MG glioblastoma cells; 20 mg/kg, 16 days): 68%; TGI % (on last day of dosing) (U87MG glioblastoma cells; 40 mg/kg, 16 days): 85%"
–,–,–,–,–,–,–,–,–,23.2,98.5,685,4.1,1.75,43,13,"Cc1c(C(=O)Nc2ccc(Oc3ccnc(N)c3Cl)cc2)c(=O)n(-c2ccccc2)n1C [Ex. 2, N-(4-((2-amino-3-chloropyridin-4-yl)oxy)phenyl)-1,5-dimethyl-3-oxo-2-phenyl-2,3-dihydro-1H-pyrazole-4-carboxamide]","TGI % (on last day of dosing) (U87MG glioblastoma cells; 6 mg/kg, 14 days): 29%; TGI % (on last day of dosing) (U87MG glioblastoma cells; 20 mg/kg, 14 days): 69%; TGI % (on last day of dosing) (U87MG glioblastoma cells; 60 mg/kg, 14 days): 82%"
2.44,11.8,8.83,70.3,3910,3.29,0.4,0.611,67.8,–,–,–,–,–,–,–,"Cc1c(C(=O)Nc2ccc(Oc3ccnc(N)c3Cl)cc2F)c(=O)n(-c2ccccc2)n1C [Ex. 31, N-(4-((2-amino-3-chloropyridin-4-yl)oxy)-2-fluorophenyl)-1,5-dimethyl-3-oxo-2-phenyl-2,3-dihydro-1H-pyrazole-4-carboxamide]",–
